What was measured:
TrkA = target: T1, TrkA (Homo sapiens, UniProt P04629); experiment: In vitro Trk receptor modulation assay (Enzyme Fragment Complementation), U2OS cells over-expressing TrkA; type: cell-based; settings: compound pre-mixed with ligand (NGF), final 10 ng/mL, 3 hours, modulator mode
T1 construct: expressed in transfected cells; host or cells: U2OS
Text: (§1) A high throughput cell-based screen was used to identify positive modulators of TrkA and TrkB. The screen involves the use of cell-based assay overexpressing TrkA, or TrkB. The purpose of the assay is to identify compounds that modulate neurotrophin signalling (Forsell et al 2012). The assay can be used in inhibitor mode using a high concentration of ligand, in modulator mode using an intermediate concentration and in agonist mode using a low concentration of ligand.
(§2) The assay uses Enzyme Fragment Complementation (EFC) technique, which is a proximity-based assay. Briefly, cells used in this assay over-express two fusion proteins, i.e. the receptor, which can be one of TrkA or TrkB fused to a small peptide of beta-galactosidase and an adaptor protein, i.e. SHC1 (or any other Trk-adaptor protein) fused to the major part of beta-galactosidase. […] The proximity between the small activating peptide on the receptor and the major part of beta-galactosidase on the adaptor protein leads to an active beta-galactosidase enzyme. The activation of the receptor is quantified by measuring the amount of active beta-galactosidase by its conversion of a non-luminescent substrate into a luminescent product.
(§3) U2OS-cells, over-expressing TrkA or TrkB, were plated in 96- or 384-well plates and incubated overnight. On the following day, test compound was pre-mixed with ligand (NGF) and the ligand-compound mixture is then added to the cells to yield a final ligand concentration of 10 ng/mL. After 3 hours of incubation at room temperature, the incubation is stopped by the addition of a beta-galactosidase substrate mixture containing detergents. The substrate mixture is incubated for 60 minutes at ambient temperature. The luminescence is thereafter read by the use of a plate reader.

TrkB = target: T2, TrkB (Homo sapiens, UniProt Q16620); experiment: In vitro Trk receptor modulation assay (Enzyme Fragment Complementation), U2OS cells over-expressing TrkB; type: cell-based; settings: compound pre-mixed with ligand (NGF), final 10 ng/mL, 3 hours, modulator mode
T2 construct: expressed in transfected cells; host or cells: U2OS
Text: as §1, §2, §3

[1] = Human liver microsomal stability; type: in vitro ADME; settings: human liver microsomes 0.5 mg/mL, 3 μM compound, NADPH, 37° C.
Protocol: A 10 mM stock solution (in DMSO) was prepared for each compound. From the intermediate stock solution of 2 mM, a working solution of 0.5 mM was prepared by diluting the compound in Acetonitrile:water (50:50). The compound (1.8 μL of working solution) was spiked in 0.1 M potassium phosphate buffer (260.7 μL), pH 7.4 at a concentration of 3 μM (0.1% DMSO). Following this, human liver microsomes (pooled, Invitrogen, #HMMCPL) (7.5 μL; final protein conc. 0.5 mg/mL) were added. The aforementioned sample was incubated at 37° C. for 5 min. Subsequently, 30 μL of 10 mM NADPH prepared in 0.1 M potassium phosphate buffer was added (as a co-factor) to initiate the reaction. The samples were then incubated at 37° C. for 0, 20, 40, 60 and 120 min.
At each time point (0, 20, 40, 60 and 120 min), 40 μL of the samples were withdrawn and reactions were stopped using 360 μL chilled acetonitrile or methanol containing suitable internal standard (Carbamazepine). The samples were centrifuged and the supernatants was analyzed in duplicate by LC-MS/MS. The percent compound remaining at each time point was calculated with respect to that of the 0 min sample. Control samples were run without NADPH for initial and final time point and blank samples was prepared using DMSO (without the test compound).
For comparison, the experiment was also performed with known Trk receptor signalling modulator 1-methyl-3-[3-methyl-4-(4-trifluoromethanesulfonylphenoxy)phenyl]-1,3,5-triazinane-2,4,6-trione) (ponazuril). Ponazuril is metabolized very slowly in vivo and this prolonged exposure creates an increased risk of side effects if the compound is administered systemically. This causes significant challenges to the development of the compound as a systemic drug.

C57/Bl6 mice = experiment: Passive avoidance task in scopolamine-treated mice; type: in vivo; settings: mice treated with scopolamine 0.3 mg/kg s.c.; compound single s.c. administration 60 min prior to training, different doses
Protocol: The passive avoidance (PA) is an aversive learning task based on classical (Pavlovian) fear conditioning that allows for analysis of both facilitation and impairment of memory function by adjusting the unconditioned stimulus, i.e. the electrical foot shock. Commonly a cognitive-impairing agent is administered to the animals to mimic the neurochemical disturbances present in various cognitive disorders e.g. cholinergic (scopolamine) and glutamatergic (MK-801) deficits.
Prior to testing, the animals are brought to the experimental room where they were allowed to habituate for 60 min. The test is conducted using a modified shuttle box with two communicating compartments of equal size with a small sliding door built into the separating wall and a stainless-steel bar floor. One of the compartments is not illuminated and thus black whereas the other compartment (the light one) is illuminated by an electric bulb, installed on the top of a plexiglass cover. The PA training is conducted in a single session. […] Latency to cross over into the dark compartment (training latency) is recorded. […] The latency to cross over into the dark compartment with all four feet is measured (retention latency) as well as time in bright compartment and a number of other relevant parameters (e.g. number of visits in the dark compartment). […]

T2 sequence (Q16620 32-822): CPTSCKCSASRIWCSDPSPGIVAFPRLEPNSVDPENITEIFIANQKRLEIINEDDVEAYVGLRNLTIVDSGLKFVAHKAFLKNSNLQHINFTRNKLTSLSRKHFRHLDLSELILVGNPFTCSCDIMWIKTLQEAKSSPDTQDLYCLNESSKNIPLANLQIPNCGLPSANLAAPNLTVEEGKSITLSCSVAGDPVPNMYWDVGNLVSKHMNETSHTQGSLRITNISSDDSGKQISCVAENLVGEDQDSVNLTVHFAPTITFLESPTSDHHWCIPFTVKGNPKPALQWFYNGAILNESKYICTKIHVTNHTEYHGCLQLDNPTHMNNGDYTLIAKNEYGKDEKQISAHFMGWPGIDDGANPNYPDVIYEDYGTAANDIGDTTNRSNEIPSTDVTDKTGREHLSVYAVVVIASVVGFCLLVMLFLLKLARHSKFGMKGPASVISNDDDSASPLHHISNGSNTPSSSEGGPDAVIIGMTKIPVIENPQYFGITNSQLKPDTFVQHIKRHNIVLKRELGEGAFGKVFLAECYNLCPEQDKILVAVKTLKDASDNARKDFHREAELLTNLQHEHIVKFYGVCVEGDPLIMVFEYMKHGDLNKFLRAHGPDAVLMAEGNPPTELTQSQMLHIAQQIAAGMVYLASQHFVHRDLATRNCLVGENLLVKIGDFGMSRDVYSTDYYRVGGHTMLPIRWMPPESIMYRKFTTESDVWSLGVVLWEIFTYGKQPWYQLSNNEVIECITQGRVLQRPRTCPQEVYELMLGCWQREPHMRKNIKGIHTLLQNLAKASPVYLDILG
T1 sequence (P04629 33-796): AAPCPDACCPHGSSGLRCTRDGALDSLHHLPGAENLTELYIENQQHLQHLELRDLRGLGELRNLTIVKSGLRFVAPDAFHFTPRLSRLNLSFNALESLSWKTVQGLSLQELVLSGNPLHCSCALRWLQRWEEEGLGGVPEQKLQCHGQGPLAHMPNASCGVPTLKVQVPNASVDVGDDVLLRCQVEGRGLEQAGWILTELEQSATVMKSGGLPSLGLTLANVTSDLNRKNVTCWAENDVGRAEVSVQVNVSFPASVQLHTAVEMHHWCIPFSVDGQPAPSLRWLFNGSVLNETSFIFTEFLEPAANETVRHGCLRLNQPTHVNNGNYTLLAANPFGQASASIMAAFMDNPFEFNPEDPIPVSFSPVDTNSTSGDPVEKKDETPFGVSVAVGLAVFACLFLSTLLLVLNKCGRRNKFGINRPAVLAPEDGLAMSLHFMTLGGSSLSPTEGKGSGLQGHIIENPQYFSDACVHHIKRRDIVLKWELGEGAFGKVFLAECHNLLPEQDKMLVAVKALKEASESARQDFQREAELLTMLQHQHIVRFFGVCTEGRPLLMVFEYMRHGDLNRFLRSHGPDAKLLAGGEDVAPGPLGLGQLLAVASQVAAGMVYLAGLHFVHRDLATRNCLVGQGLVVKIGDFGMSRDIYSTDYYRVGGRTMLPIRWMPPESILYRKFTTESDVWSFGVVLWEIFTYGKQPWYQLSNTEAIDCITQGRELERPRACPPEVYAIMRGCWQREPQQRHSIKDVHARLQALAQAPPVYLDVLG

Row | EC50 (TrkA) [nM] | EC50 (TrkB) [nM] | % of parent compound metabolized after 120 min [1] [%] | SMILES | cognitive function, retention latency within the bright area (passive avoidance) (C57/Bl6 mice)
1 | 280 | 320 | 99.8 | Cc1cccc(-n2c(=O)[nH]c(=O)n(-c3ccc(Oc4ccccc4)c(OCC(=O)N4CCCCC4)c3)c2=O)c1 [Example 10, 1-(3-methylphenyl)-3-{3-[2-oxo-2-(piperidin-1-yl)ethoxy]-4-phenoxyphenyl}-1,3,5-triazinane-2,4,6-trione] | –
2 | 410 | 220 | – | Cc1cccc(-n2c(=O)[nH]c(=O)n(-c3ccc(Oc4ccccc4)c(OCC(=O)N4CCC4)c3)c2=O)c1 [Example 12, 1-{3-[2-(azetidin-1-yl)-2-oxoethoxy]-4-phenoxyphenyl}-3-(3-methylphenyl)-1,3,5-triazinane-2,4,6-trione] | –
3 | 270 | 180 | 57.3 | Cc1cccc(-n2c(=O)[nH]c(=O)n(-c3ccc(Oc4ccccc4)c(OCC(=O)N4CCOCC4)c3)c2=O)c1 [Example 11, 1-(3-methylphenyl)-3-{3-[2-(morpholin-4-yl)-2-oxoethoxy]-4-phenoxyphenyl}-1,3,5-triazinane-2,4,6-trione] | –
4 | 210 | 150 | 82.8 | Cc1cccc(-n2c(=O)[nH]c(=O)n(-c3ccc(Oc4ccccc4)c(OCC(=O)N4CCCC4)c3)c2=O)c1 [Example 9, 1-(3-methylphenyl)-3-{3-[2-oxo-2-(pyrrolidin-1-yl)ethoxy]-4-phenoxyphenyl}-1,3,5-triazinane-2,4,6-trione] | –
5 | 130 | 90 | 48.8 | CCc1cc(-n2c(=O)[nH]c(=O)n(-c3cccc(C)c3)c2=O)ccc1Oc1ccccc1 [Example 7, 1-(3-ethyl-4-phenoxyphenyl)-3-(3-methylphenyl)-1,3,5-triazinane-2,4,6-trione] | –
6 | 300 | 270 | 37.7 | Cc1cc2cccc(-n3c(=O)[nH]c(=O)n(-c4ccc(Oc5ccccc5)c(C)c4)c3=O)c2o1 [Example 4, 1-(2-methyl-1-benzofuran-7-yl)-3-(3-methyl-4-phenoxyphenyl)-1,3,5-triazinane-2,4,6-trione] | –
7 | 330 | 310 | 82.0 | COCc1cc(-n2c(=O)[nH]c(=O)n(-c3cccc(C)c3)c2=O)ccc1Oc1ccccc1 [Example 3, 1-[3-(methoxymethyl)-4-phenoxyphenyl]-3-(3-methylphenyl)-1,3,5-triazinane-2,4,6-trione] | improves cognitive function
8 | 640 | 380 | 4.7 | CSc1cc(-n2c(=O)[nH]c(=O)n(-c3ccccc3)c2=O)ccc1Oc1ccccc1 [Example 13, 1-[3-(methylsulfanyl)-4-phenoxyphenyl]-3-phenyl-1,3,5-triazinane-2,4,6-trione] | –
9 | – | – | 3.1 | Cc1cc(-n2c(=O)[nH]c(=O)n(C)c2=O)ccc1Oc1ccc(S(=O)(=O)C(F)(F)F)cc1 [ponazuril, 1-methyl-3-[3-methyl-4-(4-trifluoromethanesulfonylphenoxy)phenyl]-1,3,5-triazinane-2,4,6-trione, reference compound] | –
10 | 210 | 220 | – | CCc1cc(-n2c(=O)[nH]c(=O)n(-c3ccccc3)c2=O)ccc1Oc1ccccc1 [Example 6, 1-(3-ethyl-4-phenoxyphenyl)-3-phenyl-1,3,5-triazinane-2,4,6-trione] | –
11 | 650 | 300 | 53.4 | CSc1cc(-n2c(=O)[nH]c(=O)n(-c3cccc(C)c3)c2=O)ccc1Oc1ccccc1 [Example 14, 1-(3-methylphenyl)-3-[3-(methylsulfanyl)-4-phenoxyphenyl]-1,3,5-triazinane-2,4,6-trione] | –
12 | 430 | 260 | 13.3 | COCc1cccc(-n2c(=O)[nH]c(=O)n(-c3ccc(Oc4ccccc4)c(C)c3)c2=O)c1 [Example 2, 1-[3-(methoxymethyl)phenyl]-3-(3-methyl-4-phenoxyphenyl)-1,3,5-triazinane-2,4,6-trione] | –
13 | 350 | 230 | – | COc1ccc(-n2c(=O)[nH]c(=O)n(-c3ccc(Oc4ccccc4)c(C)c3)c2=O)cc1 [Example 8, 1-(4-methoxyphenyl)-3-(3-methyl-4-phenoxyphenyl)-1,3,5-triazinane-2,4,6-trione] | –
14 | 40 | 110 | 29.6 | Cc1cccc(-n2c(=O)[nH]c(=O)n(-c3ccc(Oc4ccccc4)c(CN4CCCC4=O)c3)c2=O)c1 [Example 15, 1-(3-methylphenyl)-3-{3-[(2-oxopyrrolidin-1-yl)methyl]-4-phenoxyphenyl}-1,3,5-triazinane-2,4,6-trione] | –
15 | 300 | 120 | 15.4 | Cc1cccc(-n2c(=O)[nH]c(=O)n(-c3ccc(Oc4ccccc4)c(CN4CCNC4=O)c3)c2=O)c1 [Example 5, 1-(3-methylphenyl)-3-{3-[(2-oxoimidazolidin-1-yl)methyl]-4-phenoxyphenyl}-1,3,5-triazinane-2,4,6-trione] | –

Source: patent publication US20260193219A1, “TRIAZINE DERIVATIVES FOR TREATING DISEASES RELATING TO NEUROTROPHINS” (AlzeCure Pharma AB, priority 2020, published 2026)
